Data on 16 molecules can be found in patent US10800816B2 (Baxalta GmbH, priority 2012, dated 2020).

A word on the IC50: it is the concentration that gives 50% inhibition. Read a high IC50 as weaker potency.

*1 amine or outer side, *2 acyl side, *3 side chain or, on linkers, in order; H or OH if unused. Where a SMILES comes first, the peptide text is derived from it. Bridges are numbered along the chain shown (N, C = ends). Side-chain parts run from the residue outwards. [ ]: non-standard residue; d: D form. The star is where a group is joined. TTDA(Palmitoyl) = CCCCCCCCCCCCCCCC(=O)NCCCOCCOCCOCCCN*; Suc = O=C(CCC(=O)[*:2])[*:1]; Tle = CC(C)(C)[C@H](N)C(=O)O; Hexanoyl = CCCCCC(=O)*; Aib = CC(C)(N)C(=O)O; Acm = CC(=O)NC*; Sar = CNCC(=O)O

Series [1] has as its system TFPI. Briefly: IC50 ELISA | Mean IC50 [nM]. The text has this: Table printed on a drawing sheet, FIGURE 78Z
Head of the field: IC50 ELISA | Mean IC50 [nM]
First copying reader's note: Continued table: the first body row (45.67) belongs to a compound on the preceding sheet, the last row probably continues on the next sheet, and cells with several values list single replicates.
On the technique in general: In an ELISA, binding on a coated surface is turned into a signal by an enzyme label.

The subject of series [2] is TFPI. Briefly: Extrinsic Tenase Inhibition assay | % Inhibition @ 2.5μM.

As to `CC(=O)N[C@@H](Cc1ccccc1)C(=O)N[C@@H](CCC(N)=O)C(=O)N[C@@H](CO)C(=O)N[C@@H](CCCCN)C(=O)N1CCC[C@@H]1C(=O)N[C@@H](CC(N)=O)C(=O)N[C@H](C(=O)N[C@@H](Cc1c[nH]cn1)C(=O)N[C@H](C(=O)N[C@@H](CS)C(=O)NCC(=O)N[C@@H](Cc1ccc(O)cc1)C(=O)N[C@@H](Cc1ccccc1)C(=O)N[C@@H](CCC(=O)O)C(=O)N[C@@H](CCCNC(=N)N)C(=O)N[C@@H](CC(C)C)C(=O)NC(C)(C)C(=O)N[C@@H](C)C(=O)N[C@@H](CCCCN)C(=O)N[C@@H](CC(C)C)C(N)=O)C(C)C)C(C)C` [JBT00002371], the “24 h Human Plasma Stability | Mean Remaining [%]” value in the series “FIGURE 78M” stood at 31.20%.
Take `CC[C@H](NC(=O)[C@H](Cc1c[nH]cn1)NC(=O)[C@@H](NC(=O)[C@H](CC(N)=O)NC(=O)[C@H]1CCCN1C(=O)[C@H](CCCCN)NC(=O)[C@H](CO)NC(=O)[C@H](CCC(N)=O)NC(=O)[C@H](Cc1ccccc1)NC(C)=O)C(C)C)C(=O)N[C@@H](CC(=O)O)C(=O)NCC(=O)N[C@@H](Cc1ccc(O)cc1)C(=O)N[C@@H](Cc1ccccc1)C(=O)N[C@@H](CCC(=O)O)C(=O)N[C@@H](CCCNC(=N)N)C(=O)N[C@@H](CC(C)C)C(=O)NC(C)(C)C(=O)N[C@@H](C)C(=O)N[C@@H](CCCCN)C(=O)N[C@@H](CC(C)C)C(=O)N[C@@H](CSC1CC(=O)N(CC)C1=O)C(N)=O` (some centres unmarked) [JBT00002381, Ac-FQSKpNVH-Abu-DGYFERL-Aib-AKLC(NEM)-NH2]: the “24 h Human Plasma Stability | Mean Remaining [%]” value in “FIGURE 78M” turned out to be 17.30%.
As for `CCN1C(=O)CC(SC[C@H](NC(=O)[C@H](CC(C)C)NC(=O)[C@H](CCCCN)NC(=O)[C@H](C)NC(=O)C(C)(C)NC(=O)[C@H](CC(C)C)NC(=O)[C@H](CCCNC(=N)N)NC(=O)[C@H](CCC(=O)O)NC(=O)[C@H](Cc2ccccc2)NC(=O)[C@H](Cc2ccc(O)cc2)NC(=O)CNC(=O)[C@H](CC(=O)O)NC(=O)[C@H](CC(F)(F)F)NC(=O)[C@H](Cc2c[nH]cn2)NC(=O)[C@@H](NC(=O)[C@H](CC(N)=O)NC(=O)[C@H]2CCCN2C(=O)[C@H](CCCCN)NC(=O)[C@H](CO)NC(=O)[C@H](CCC(N)=O)NC(=O)[C@H](Cc2ccccc2)NC(C)=O)C(C)C)C(N)=O)C1=O` (stereo partly drawn) [JBT00002382, Ac-FQSKpNVH-(L-2-Amino-4,4,4-trifluorobutyric acid)- DGYFERL-Aib-AKLC(NEM)-NH2], in the series “FIGURE 78M”, the “24 h Human Plasma Stability | Mean Remaining [%]” value came to 20.50%.
Take `CCN1C(=O)CC(SC[C@H](NC(=O)[C@H](CC(C)C)NC(=O)[C@H](CCCCN)NC(=O)[C@H](C)NC(=O)C(C)(C)NC(=O)[C@H](CC(C)C)NC(=O)[C@H](CCCNC(=N)N)NC(=O)[C@H](CCC(=O)O)NC(=O)[C@H](Cc2ccccc2)NC(=O)[C@H](Cc2ccc(O)cc2)NC(=O)CNC(=O)[C@H](CC(=O)O)NC(=O)[C@@H](NC(=O)[C@H](Cc2c[nH]cn2)NC(=O)[C@@H](NC(=O)[C@H](CC(N)=O)NC(=O)[C@H]2CCCN2C(=O)[C@H](CCCCN)NC(=O)[C@H](CO)NC(=O)[C@H](CCC(N)=O)NC(=O)[C@H](Cc2ccccc2)NC(C)=O)C(C)C)C2CCCC2)C(N)=O)C1=O` (some centres unmarked) [JBT00002383, Ac-FQSKpNVH-Cpg-DGYFERL-Aib-AKLC(NEM)-NH2]: the “24 h Human Plasma Stability | Mean Remaining [%]” value in the series “FIGURE 78M” is 31.00%.
For the molecule `CCN1C(=O)CC(SC[C@H](NC(=O)[C@H](CC(C)C)NC(=O)[C@H](CCCCN)NC(=O)[C@H](C)NC(=O)C(C)(C)NC(=O)[C@H](CC(C)C)NC(=O)[C@H](CCCNC(=N)N)NC(=O)[C@H](CCC(=O)O)NC(=O)[C@H](Cc2ccccc2)NC(=O)[C@H](Cc2ccc(O)cc2)NC(=O)CNC(=O)[C@H](CC(=O)O)NC(=O)C(C)(C)NC(=O)[C@H](Cc2c[nH]cn2)NC(=O)[C@@H](NC(=O)[C@H](CC(N)=O)NC(=O)[C@H]2CCCN2C(=O)[C@H](CCCCN)NC(=O)[C@H](CO)NC(=O)[C@H](CCC(N)=O)NC(=O)[C@H](Cc2ccccc2)NC(C)=O)C(C)C)C(N)=O)C1=O` (some centres unmarked) [JBT00002385, Ac-FQSKpNVH-Aib-DGYFERL-Aib-AKLC(NEM)-NH2], the “24 h Human Plasma Stability | Mean Remaining [%]” value in the series “FIGURE 78M” came out at 51.50%.
With `CCCCCCCCCCCCCCCC(=O)NCCCOCCOCCOCCCNC(=O)CCC(=O)NCCCC[C@H](NC(=O)[C@H](CC(C)C)NC(=O)[C@H](CCCCN)NC(=O)[C@H](C)NC(=O)C(C)(C)NC(=O)[C@H](CC(C)C)NC(=O)[C@H](CCCNC(=N)N)NC(=O)[C@H](CCC(=O)O)NC(=O)[C@H](Cc1ccccc1)NC(=O)[C@H](Cc1ccc(O)cc1)NC(=O)[C@@H](C)NC(=O)[C@H](CC(=O)O)NC(=O)[C@@H](NC(=O)[C@H](Cc1c[nH]cn1)NC(=O)[C@@H](NC(=O)[C@H](CSCNC(C)=O)NC(=O)[C@H]1CCCN1C(=O)[C@H](CCCCN)NC(=O)[C@H](CO)NC(=O)[C@H](CCC(N)=O)NC(=O)[C@H](Cc1ccccc1)NC(=O)CCCCC)C(C)C)C(C)(C)C)C(N)=O` [JBT00002532, Hex-FQSKp-Cys(Acm)-VH-Tle-DaYFERL-Aib-AKLK(Ttds- Palm)--NH2] (Hexanoyl-FQSK[dP]C(Acm)VH[Tle]D[dA]YFERL[Aib]AKLK([Suc-TTDA(Palmitoyl)])-NH2), in the series “FIGURE 78Z”, the “24 h Human Plasma Stability | Mean Remaining [%]” value is 107.70% and the “24 h Mouse Plasma Stability | Mean Remaining [%]” value was 67.50%. Moreover, the IC50 in the series on TFPI [1] came to 36.7 nM.
As to “(Hex-FQSKp-Cys(Acm)-VH-Tle-DaYFERL-Aib-AKLC- NH2)2-M2TriO [JBT00002533]”, in “FIGURE 78Z”, the “24 h Human Plasma Stability | Mean Remaining [%]” value came to 185.13% and the “24 h Mouse Plasma Stability | Mean Remaining [%]” value is recorded as 52.65%.
Take “Ac-FQSK-Nmg-NVFVAGYFERLRAKL-NH2 (SEQ ID NO: 161) (Ac-FQSK[Sar]NVFVAGYFERLRAKL-NH2; SMILES CC(=O)N[C@@H](Cc1ccccc1)C(=O)N[C@@H](CCC(N)=O)C(=O)N[C@@H](CO)C(=O)N[C@@H](CCCCN)C(=O)N(C)CC(=O)N[C@@H](CC(N)=O)C(=O)N[C@H](C(=O)N[C@@H](Cc1ccccc1)C(=O)N[C@H](C(=O)N[C@@H](C)C(=O)NCC(=O)N[C@@H](Cc1ccc(O)cc1)C(=O)N[C@@H](Cc1ccccc1)C(=O)N[C@@H](CCC(=O)O)C(=O)N[C@@H](CCCNC(=N)N)C(=O)N[C@@H](CC(C)C)C(=O)N[C@@H](CCCNC(=N)N)C(=O)N[C@@H](C)C(=O)N[C@@H](CCCCN)C(=O)N[C@@H](CC(C)C)C(N)=O)C(C)C)C(C)C) [JBT1396]”: the “Extrinsic Tenase Inhibition assay | % Inhibition @ […]” value in the series with TFPI [2] was 34%.
Regarding “Ac-FQSK-Nmg-NVFVTGYFERL-Aib-AKL-NH2 (SEQ ID NO: 165) (Ac-FQSK[Sar]NVFVTGYFERL[Aib]AKL-NH2; SMILES CC(=O)N[C@@H](Cc1ccccc1)C(=O)N[C@@H](CCC(N)=O)C(=O)N[C@@H](CO)C(=O)N[C@@H](CCCCN)C(=O)N(C)CC(=O)N[C@@H](CC(N)=O)C(=O)N[C@H](C(=O)N[C@@H](Cc1ccccc1)C(=O)N[C@H](C(=O)N[C@H](C(=O)NCC(=O)N[C@@H](Cc1ccc(O)cc1)C(=O)N[C@@H](Cc1ccccc1)C(=O)N[C@@H](CCC(=O)O)C(=O)N[C@@H](CCCNC(=N)N)C(=O)N[C@@H](CC(C)C)C(=O)NC(C)(C)C(=O)N[C@@H](C)C(=O)N[C@@H](CCCCN)C(=O)N[C@@H](CC(C)C)C(N)=O)[C@@H](C)O)C(C)C)C(C)C) [JBT1585]”, the “Extrinsic Tenase Inhibition assay | % Inhibition @ […]” value in the series on TFPI [2] came out at 48%.
For “Ac-FQSK-Nmg-NVFVTGYFERLRAKL-NH2 (SEQ ID NO: 125) (Ac-FQSK[Sar]NVFVTGYFERLRAKL-NH2; SMILES CC(=O)N[C@@H](Cc1ccccc1)C(=O)N[C@@H](CCC(N)=O)C(=O)N[C@@H](CO)C(=O)N[C@@H](CCCCN)C(=O)N(C)CC(=O)N[C@@H](CC(N)=O)C(=O)N[C@H](C(=O)N[C@@H](Cc1ccccc1)C(=O)N[C@H](C(=O)N[C@H](C(=O)NCC(=O)N[C@@H](Cc1ccc(O)cc1)C(=O)N[C@@H](Cc1ccccc1)C(=O)N[C@@H](CCC(=O)O)C(=O)N[C@@H](CCCNC(=N)N)C(=O)N[C@@H](CC(C)C)C(=O)N[C@@H](CCCNC(=N)N)C(=O)N[C@@H](C)C(=O)N[C@@H](CCCCN)C(=O)N[C@@H](CC(C)C)C(N)=O)[C@@H](C)O)C(C)C)C(C)C) [JBT1155]”, the “Extrinsic Tenase Inhibition assay | % Inhibition @ […]” value in the series on TFPI [2] is given as 32%.
On the same count and under the same terms, with “Ac-FQSKGNVFvFGYFERLRAKL-NH2 (SEQ ID NO: 936) (Ac-FQSKGNVF[dV]FGYFERLRAKL-NH2; SMILES CC(=O)N[C@@H](Cc1ccccc1)C(=O)N[C@@H](CCC(N)=O)C(=O)N[C@@H](CO)C(=O)N[C@@H](CCCCN)C(=O)NCC(=O)N[C@@H](CC(N)=O)C(=O)N[C@H](C(=O)N[C@@H](Cc1ccccc1)C(=O)N[C@@H](C(=O)N[C@@H](Cc1ccccc1)C(=O)NCC(=O)N[C@@H](Cc1ccc(O)cc1)C(=O)N[C@@H](Cc1ccccc1)C(=O)N[C@@H](CCC(=O)O)C(=O)N[C@@H](CCCNC(=N)N)C(=O)N[C@@H](CC(C)C)C(=O)N[C@@H](CCCNC(=N)N)C(=O)N[C@@H](C)C(=O)N[C@@H](CCCCN)C(=O)N[C@@H](CC(C)C)C(N)=O)C(C)C)C(C)C) [JBT1149]” the figure was 0%; with “Ac-FQSKKNVFFFGYFERLRAKL-NH2 (SEQ ID NO: 735) [JBT1152]”, 0%; with “Ac-FQSKKNVFVFGYFERLRAKD-NH2 (SEQ ID NO: 937) [JBT1151]”, 0%.
Same read-out and setting: with “Ac-FQSKpNVFVFGYFERLRAKL-NH2 (SEQ ID NO: 129) (Ac-FQSK[dP]NVFVFGYFERLRAKL-NH2; SMILES CC(=O)N[C@@H](Cc1ccccc1)C(=O)N[C@@H](CCC(N)=O)C(=O)N[C@@H](CO)C(=O)N[C@@H](CCCCN)C(=O)N1CCC[C@@H]1C(=O)N[C@@H](CC(N)=O)C(=O)N[C@H](C(=O)N[C@@H](Cc1ccccc1)C(=O)N[C@H](C(=O)N[C@@H](Cc1ccccc1)C(=O)NCC(=O)N[C@@H](Cc1ccc(O)cc1)C(=O)N[C@@H](Cc1ccccc1)C(=O)N[C@@H](CCC(=O)O)C(=O)N[C@@H](CCCNC(=N)N)C(=O)N[C@@H](CC(C)C)C(=O)N[C@@H](CCCNC(=N)N)C(=O)N[C@@H](C)C(=O)N[C@@H](CCCCN)C(=O)N[C@@H](CC(C)C)C(N)=O)C(C)C)C(C)C) [JBT1162]” the figure was 51%.
With “Ac-[CFQSKGNVFVDGYFERLC]AKL-NH2 (SEQ ID NO: 402) (Ac-CFQSKGNVFVDGYFERLCAKL-NH2; disulfide 1-18) [JBT1592]”, the “Extrinsic Tenase Inhibition assay | % Inhibition @ […]” value in the series on TFPI [2] is listed as 11%.
Consider “Hex-FQSKp-Cys(Acm)-VH-Tle-DaYFERL-Aib-AKLC(ME- 400MA)-NH2 [JBT00002534]”, for which, in “FIGURE 78Z”, the “24 h Human Plasma Stability | Mean Remaining [%]” value is reported as 59.83% and the “24 h Mouse Plasma Stability | Mean Remaining [%]” value was 69.87%.
